Data on one compound can be found in patent EP0403158A2, “Imidazolyl-alkenoic acids” (SMITHKLINE BEECHAM CORPORATION, priority 1989, dated 1990).

Experiment [1] relates to pressor response to exogenous angiotensin II. Kind of experiment: Inhibition of pressor response to angiotensin II in conscious rats. It is filed as in vivo. The settings on record: Rattus norvegicus, i.v., change in mean arterial pressure after intravenous 250 mg/kg angiotensin II, read-out: IC50 (dose of compound needed to produce 50% inhibition of the control response to angiotensin II). As to the method: (§1) Angiotensin II antagonist activity of the compounds of Formulas (I) and (IA) is assessed by in vitro and in vivo methods. In vitro antagonist activity is determined by the ability of the compounds to compete with ¹²⁵I-angiotensin II for binding to vascular angiotensin II receptors and by their ability to antagonize the contractile response to angiotensin II in the isolated rabbit aorta. In vivo activity is evaluated by the efficacy of the compounds to inhibit the pressor response to exogenous angiotensin II in conscious rats and to lower blood pressure in a rat model of renin dependent hypertension.
Rats are prepared with indwelling femoral arterial and venous catheters and a stomach tube (Gellai et al., Kidney Int. 15:419, 1979). Two to three days following surgery the rats are placed in a restrainer and blood pressure is continuously monitored from the arterial catheter with a pressure transducer and recorded on a polygraph. The change in mean arterial pressure in response to intravenous injections of […] angiotensin II is compared at various time points prior to and following the administration of the compounds intravenously or orally at doses of 3 to 300 mg/kg. The dose of compound needed to produce 50% inhibition of the control response to angiotensin II (IC₅₀) is used to estimate the potency of the compounds. […]

The subject of experiment [2] is mean arterial pressure in conscious rats made renin dependent hypertensive. Kind of experiment: Antihypertensive activity in renal artery ligated (renin dependent hypertensive) conscious rats. It is filed as in vivo. The settings on record: Rattus norvegicus, iv, seven to eight days following ligation, read-out: IC30 (dose of compound needed to reduce mean arterial pressure by 30 mm Hg). Here is the method:
as §1
The antihypertensive activity of the compounds is measured by their ability to reduce mean arterial pressure in conscious rats made renin dependent hypertensive by ligation of the left renal artery (Cangiano et al., J. Pharmacol. Exp. Ther. 208:310, 1979). Renal artery ligated rats are prepared with indwelling catheters as described above. Seven to eight days following renal artery ligation, the time at which plasma renin levels are highest, the conscious rats are placed in restrainers and mean arterial pressure is continuously recorded prior to and following the administration of the compounds intravenously or orally. The dose of compound needed to reduce mean arterial pressure by 30 mm Hg (IC₃₀) is used as an estimate of potency. […]

Consider `CCCCc1ncc(/C=C(\Cc2ccccc2)C(=O)O)n1Cc1ccccc1Cl` [(E)-3-[2-n-butyl-1-{(2-chlorophenyl)methyl}-1H-imidazol-5-yl]-2-benzyl-2-propenoic acid], for which, in experiment [1], the ED50 came to 14 mg/kg. Also, in experiment [2], the ED (30 mm Hg) turned out to be 10 mg/kg.
